From PubChem BioAssay AID248 (DTP/NCI, 2004)
Where “and” joins values, the source holds several entries; their conditions need not be identical. Identical values can stand only once. Toxic doses and inconclusive results are not listed. No stated cut-off is given here; in the data, active means T/C of 150% or more; inactive means T/C below 125%. Square brackets hold non-standard residues; d marks the D form. Peptide text beside a SMILES is read from it. * marks the point of attachment. ξ: configuration not given here. Cbz = O=C(OCc1ccccc1)*; OBn = c1ccc(CO*)cc1; ξS = NC(CO)C(=O)O

System: L1210 leukemia ip in BDF1 mice, survival T/C
Assay: NCI In Vivo Anticancer Drug Screen. Data for tumor model L1210 Leukemia (intraperitoneal) in B6D2F1 (BDF1) mice
Settings: endpoint: mean survival time, higher = longer survival
Outline: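 Tumor was transplanted into mice, which were then dosed with test compound or vehicle alone. Survival was recorded for each group, and the treated figure was expressed relative to the control figure.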

[1] = dose: 100.0 mg/kg/injection, schedule: Q01DX009 (ip), vehicle: Klucel (hydroxypropylcellulose) (HPC)
[2] = dose: 100.0 mg/kg/injection, schedule: Q04DX003 (ip), vehicle: Klucel (hydroxypropylcellulose) (HPC)
[3] = dose: 200.0 mg/kg/injection, schedule: Q01DX009 (ip), vehicle: Klucel (hydroxypropylcellulose) (HPC)
[4] = dose: 200.0 mg/kg/injection, schedule: Q04DX003 (ip), vehicle: Klucel (hydroxypropylcellulose) (HPC)
[5] = dose: 400.0 mg/kg/injection, schedule: Q04DX003 (ip), vehicle: Klucel (hydroxypropylcellulose) (HPC)
[6] = dose: 100.0 mg/kg/injection, schedule: Q01DX001 (ip), vehicle: saline
[7] = dose: 100.0 mg/kg/injection, schedule: Q01DX001 (ip), vehicle: carboxymethylcellulose (CMC)
[8] = dose: 200.0 mg/kg/injection, schedule: Q01DX001 (ip), vehicle: carboxymethylcellulose (CMC)
[9] = dose: 100.0 mg/kg/injection, schedule: Q01DX009 (ip), vehicle: saline with Tween-80
[10] = dose: 200.0 mg/kg/injection, schedule: Q01DX009 (ip), vehicle: saline with Tween-80
[11] = dose: 400.0 mg/kg/injection, schedule: Q01DX009 (ip), vehicle: saline with Tween-80
[12] = dose: 100.0 mg/kg/injection, schedule: Q04DX003 (ip), vehicle: saline with Tween-80
[13] = dose: 400.0 mg/kg/injection, schedule: Q01DX009 (ip), vehicle: Klucel (hydroxypropylcellulose) (HPC)

Measured: T/C

C1CCN[N-]C1.C1CCN[N-]C1.[Cl][Pt+2]([Cl])([Cl])[Cl]
inactive: dose: 25.0 mg/kg/injection, schedule: Q04DX003 (ip), vehicle: water 111 % of control | dose: 50.0 mg/kg/injection, schedule: Q04DX003 (ip), vehicle: water 102 % of control | dose: 100.0 mg/kg/injection, schedule: Q04DX003 (ip), vehicle: water 102 % of control

CC(C)=CC(=O)NC(=O)NS(=O)(=O)c1ccc(Cl)cc1
inactive: dose: 50.0 mg/kg/injection, schedule: Q01DX009 (ip), vehicle: Klucel (hydroxypropylcellulose) (HPC) 100 % of control | [1] 107 % of control | [2] 105 % of control | [3] 98 % of control | [4] 102 % of control | [5] 106 % of control

COc1ccccc1/C=C(\SS/C(=C/c1ccccc1OC)C(=O)O)C(=O)O
inactive: [6] 120 % of control | dose: 200.0 mg/kg/injection, schedule: Q01DX001 (ip), vehicle: saline 91 % of control

CC12CC[C]([Hg][I])(CC1)C2(C)C
98 % of control and 211 % of control: dose: 25.0 mg/kg/injection, schedule: Q01DX009 (ip), vehicle: saline with Tween-80
inactive: dose: 6.25 mg/kg/injection, schedule: Q01DX009 (ip), vehicle: saline with Tween-80 101 % of control and 103 % of control | dose: 12.5 mg/kg/injection, schedule: Q01DX009 (ip), vehicle: saline with Tween-80 95 % of control and 110 % of control | dose: 50.0 mg/kg/injection, schedule: Q01DX009 (ip), vehicle: saline with Tween-80 91 % of control

CCOc1cc(N)nc(N)c1[N+](=O)[O-]
inactive: [7] 95 % of control | [8] 87 % of control

COc1ccc([N+](=O)[O-])cc1NC(=O)Cc1ccccc1
inactive: [9] 107 % of control | [10] 101 % of control | [11] 91 % of control

CC(C)(C)c1cc(C[P+](c2ccc(Cl)cc2)(c2ccc(Cl)cc2)c2ccc(Cl)cc2)cc(C(C)(C)C)c1O
inactive: dose: 12.5 mg/kg/injection, schedule: Q01DX009 (ip), vehicle: Klucel (hydroxypropylcellulose) (HPC) 97 % of control | dose: 25.0 mg/kg/injection, schedule: Q01DX009 (ip), vehicle: Klucel (hydroxypropylcellulose) (HPC) 88 % of control | [2] 98 % of control | [4] 100 % of control

NCCc1cc(O)c(O)c(S(=O)(=O)c2ccccc2)c1
inactive: dose: 87.5 mg/kg/injection, schedule: Q01DX009 (ip), vehicle: saline 96 % of control | dose: 175.0 mg/kg/injection, schedule: Q01DX009 (ip), vehicle: saline 94 % of control | dose: 350.0 mg/kg/injection, schedule: Q01DX009 (ip), vehicle: saline 115 % of control

CCCCCCCCCCCC(=O)[O][Pb]([CH2]C)([CH2]C)[CH2]C
inactive: dose: 6.25 mg/kg/injection, schedule: Q04DX003 (ip), vehicle: saline with Tween-80 101 % of control | dose: 12.5 mg/kg/injection, schedule: Q04DX003 (ip), vehicle: saline with Tween-80 102 % of control | [12] 106 % of control

CC(C)(C)C1CC=CCC1 (configuration not stated)
inactive: dose: 50.0 mg/kg/injection, schedule: Q01DX009 (ip), vehicle: saline sonified 96 % of control | dose: 100.0 mg/kg/injection, schedule: Q01DX009 (ip), vehicle: saline sonified 102 % of control | dose: 200.0 mg/kg/injection, schedule: Q01DX009 (ip), vehicle: saline sonified 100 % of control

Cc1ccc(CC(=O)N2CCOCC2)cc1
inactive: [7] 106 % of control | [8] 97 % of control | dose: 400.0 mg/kg/injection, schedule: Q01DX001 (ip), vehicle: carboxymethylcellulose (CMC) 92 % of control

CCC(C(N)=O)N1C(=O)C2C3CCC(O3)C2C1=O (configuration not stated)
inactive: dose: 100.0 mg/kg/injection, schedule: Q04DX003 (ip), vehicle: saline 101 % of control | dose: 200.0 mg/kg/injection, schedule: Q04DX003 (ip), vehicle: saline 97 % of control | dose: 400.0 mg/kg/injection, schedule: Q04DX003 (ip), vehicle: saline 101 % of control

S=C(NCCS)Nc1ccccc1
inactive: [2] 98 % of control | [4] 105 % of control | [5] 99 % of control

CCCCCc1cc[n+](CC(O)c2ccccc2)cc1 (configuration not stated)
inactive: [6] 94 % of control

Nc1ncnc2nc(CO)[nH]c12
inactive: dose: 100.0 mg/kg/injection, schedule: Q04DX002 (ip), vehicle: Klucel (hydroxypropylcellulose) (HPC) 92 % of control | dose: 200.0 mg/kg/injection, schedule: Q04DX002 (ip), vehicle: Klucel (hydroxypropylcellulose) (HPC) 100 % of control | dose: 400.0 mg/kg/injection, schedule: Q04DX002 (ip), vehicle: Klucel (hydroxypropylcellulose) (HPC) 95 % of control

CCOC(=O)c1ccc(C(=O)OCC)nc1
inactive: dose: 12.5 mg/kg/injection, schedule: Q01DX009 (ip), vehicle: saline 109 % of control | dose: 25.0 mg/kg/injection, schedule: Q01DX009 (ip), vehicle: saline 94 % of control | dose: 50.0 mg/kg/injection, schedule: Q01DX009 (ip), vehicle: saline 101 % of control | [9] 87 % of control | [12] 101 % of control | dose: 200.0 mg/kg/injection, schedule: Q04DX003 (ip), vehicle: saline with Tween-80 106 % of control | dose: 400.0 mg/kg/injection, schedule: Q04DX003 (ip), vehicle: saline with Tween-80 103 % of control

CC1CC2(C)C(CC1=O)CC(C)C1C3CCC(O)C3(C)CCC12 (configuration not stated)
inactive: [9] 92 % of control | [10] 96 % of control | [11] 94 % of control

CCOC(=O)c1oc2ccc(OC)c(C(C)=O)c2c1C
inactive: dose: 100.0 mg/kg/injection, schedule: Q04DX002 (ip), vehicle: saline with Tween-80 103 % of control | dose: 200.0 mg/kg/injection, schedule: Q04DX002 (ip), vehicle: saline with Tween-80 107 % of control | dose: 400.0 mg/kg/injection, schedule: Q04DX002 (ip), vehicle: saline with Tween-80 94 % of control

CCC(=O)C(CCN(C)C)(c1ccccc1)c1ccccn1 (configuration not stated)
inactive: dose: 44.0 mg/kg/injection, schedule: Q01DX Z (ip), vehicle: saline 98 % of control | dose: 66.0 mg/kg/injection, schedule: Q01DX Z (ip), vehicle: saline 104 % of control

Cc1nc(N)[nH]c(=O)c1CCCNc1ccc(/C=C/C(=O)CCl)cc1
inactive: dose: 50.0 mg/kg/injection, schedule: Q01DX Z (ip), vehicle: carboxymethylcellulose (CMC) 90 % of control | dose: 100.0 mg/kg/injection, schedule: Q01DX Z (ip), vehicle: carboxymethylcellulose (CMC) 86 % of control | dose: 200.0 mg/kg/injection, schedule: Q01DX Z (ip), vehicle: carboxymethylcellulose (CMC) 90 % of control | dose: 400.0 mg/kg/injection, schedule: Q01DX Z (ip), vehicle: carboxymethylcellulose (CMC) 90 % of control

CN(C)c1ccc(C(=O)NO)cc1
inactive: [1] 97 % of control | [3] 105 % of control | [13] 100 % of control

COc1ccc(C(=O)CC(C(=O)O)c2ccc3c(c2)OCO3)cc1OC (configuration not stated)
inactive: [9] 96 % of control | [10] 98 % of control | [11] 98 % of control

O=C(COc1ccc(Cl)cc1)Nc1ccc(Cl)cc1C(=O)c1ccccc1
inactive: dose: 50.0 mg/kg/injection, schedule: Q01DX009 (ip), vehicle: other 106 % of control | dose: 100.0 mg/kg/injection, schedule: Q01DX009 (ip), vehicle: other 102 % of control | dose: 200.0 mg/kg/injection, schedule: Q01DX009 (ip), vehicle: other 96 % of control and 87 % of control | dose: 400.0 mg/kg/injection, schedule: Q01DX009 (ip), vehicle: other 89 % of control

COc1ccc(S(=O)(=O)F)cc1NC(=O)NCCOc1ccc(-n2cnc3c(=O)[nH]c(N)nc32)cc1
inactive: dose: 100.0 mg/kg/injection, schedule: Q01DX001 (ip), vehicle: Klucel (hydroxypropylcellulose) (HPC) 102 % of control | dose: 200.0 mg/kg/injection, schedule: Q01DX001 (ip), vehicle: Klucel (hydroxypropylcellulose) (HPC) 97 % of control | dose: 400.0 mg/kg/injection, schedule: Q01DX001 (ip), vehicle: Klucel (hydroxypropylcellulose) (HPC) 96 % of control

COc1ccc(/C=C/c2nc3ccccc3nc2/C=C/c2ccc(OC)c(OC)c2)cc1OC
inactive: [1] 95 % of control | [2] 88 % of control | [3] 86 % of control | [4] 91 % of control | [5] 97 % of control

O=C(OCC(COC(=O)c1ccccc1)(COC(=O)c1ccccc1)COC(=O)c1ccccc1)c1ccccc1
inactive: [1] 91 % of control | [2] 91 % of control | [3] 105 % of control | [4] 99 % of control | [13] 96 % of control | [5] 98 % of control

O=C(CNC(=O)OCc1ccccc1)NC(CO)C(=O)OCc1ccccc1 (stereo not drawn) (Cbz-Gly-[ξS]-OBn)
inactive: [2] 101 % of control | [4] 101 % of control | [5] 105 % of control
